88 compounds from PubChem BioAssay AID732 (Emory University Molecular Libraries Screening Center, 2007) can be followed below.

Molecules are shown by their SMILES. “And” between values parts separate entries of the source, which are not always exact repeats. Identical values can stand only once. The source made the active and inactive calls. How the calls were made is not given here.

In the experiment the test system is in vivo angiogenesis, blood vessel count. The experiment is described as follows: angiogenesis inhibition in living animals, in vivo study, HTS (AID 732).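 Further: zebrafish embryos dosed at one day post fertilization; 0% = reference inhibitor and 100% = plate mean.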 The note with it: hits give low values;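 tested at 30 µM in the well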.
`CC[C@@H]1C(=O)OC[C@@H]1Cc1cncn1C`: the vessel count % control was 82.3% (inactive) and 90.8% (inactive).
To `Nc1nnc(-c2cccc(Cl)c2Cl)c(N)n1` belongs 62.2% (inactive); to `CC1(C)CCC(NC(=O)[C@@H](N)CCC(=O)O)CC1`, 122% (inactive); to `O=c1[nH]c2cc([N+](=O)[O-])c([N+](=O)[O-])cc2[nH]c1=O`, 104% (inactive).
On to `CC(=O)SCC[N+](C)(C)C`, for which the vessel count % control is 99% (inactive).
Turning to `C[C@]12C[C@H](O)[C@H]3[C@@H](CCC4=CC(=O)CC[C@@]43C)[C@@H]1CC[C@@H]2C(=O)CO`, the vessel count % control is 103% (inactive).
The result for `CC1=C(C(=O)O)N2C(=O)[C@@H](NC(=O)C(N)c3ccccc3)[C@H]2SC1` (stereo partly drawn) reads 93.6% (inactive).
For the compound `NC1C=CC=C(C(=O)O)C1` (stereo not drawn), the vessel count % control is 114% (inactive).
To `O=c1[nH]oc2c1CCNC2` belongs 103% (inactive); to `O=[N+]([O-])c1cccc2c(Br)[nH]nc12`, 99.9% (inactive); to `CN(C)CCCN1c2ccccc2Sc2ccc(Cl)cc21`, 84.3% (inactive).
The result for `Nc1nc(Cl)nc2c1ncn2[C@@H]1O[C@H](COP(=O)(O)OP(=O)(O)OP(=O)(O)O)[C@H](O)C1O` (stereo partly drawn) reads 107% (inactive); that for `O=C(Cc1ccc(Cl)c(Cl)c1)N1CCCCC1CN1CCCC1` (stereo not drawn), 114% (inactive).
To `COc1ccc(NC(=O)/C=C/c2ccc(Cl)cc2)cc1` belongs 106% (inactive).
In the case of `CCCNC(C)C(=O)Nc1ccccc1C` (stereo not drawn), the vessel count % control was 108% (inactive).
The result for `CC(Cc1ccc(OCC(=O)O)cc1)NCC(O)c1cccc(Cl)c1` (stereo not drawn) reads 97.7% (inactive); that for `NCCCP(=O)(O)O`, 91.6% (inactive).
The result for `N[C@@H](Cc1ccc(O)c(O)c1)C(=O)O` reads 118% (inactive).
To `N=Nc1c(-c2c(O)[nH]c3c(Cl)cc(Cl)cc23)[nH]c2ccc(Br)cc12` belongs 53.5% (inactive).
`Cc1nc2n(c(=O)c1CCN1CCC(c3noc4cc(F)ccc34)CC1)CCCC2`: the vessel count % control was 104% (inactive).
`CC(C)CC(NP(=O)(O)O[C@@H]1O[C@@H](C)[C@H](O)[C@@H](O)[C@H]1O)C(=O)NC(Cc1c[nH]c2ccccc12)C(=O)O` (stereo partly drawn): the vessel count % control was 118% (inactive).
The result for `NC(N)=NC(N)=Nc1cccc(Cl)c1` reads 103% (inactive).
Regarding `C=CCN1CCc2cc(O)c(O)cc2C(c2ccccc2)C1` (stereo not drawn), the vessel count % control is 114% (inactive).
Consider `C[C@H](Cc1ccc2c(c1)OC(C(=O)O)(C(=O)O)O2)NC[C@H](O)c1cccc(Cl)c1`, for which the vessel count % control is 98.2% (inactive).
To `CCCn1c(=O)c2[nH]c(-c3ccc(S(=O)(=O)O)cc3)nc2n(CCC)c1=O` belongs 70.2% (inactive); to `OCC1NCC(O)C(O)C1O` (stereo not drawn), 97.9% (inactive); to `Ic1ccccc1CNC1C2CCN(CC2)C1C(c1ccccc1)c1ccccc1` (stereo not drawn), 103% (inactive).
The result for `C[C@@H](Oc1ccc(Oc2cnc3ccc(Cl)cc3n2)cc1)C(=O)O` reads 80.3% (inactive); that for `C[C@]12CCC3C(CC[C@H]4C[C@H](O)CC[C@]34C)C1CC[C@@H]2C(=O)CO` (stereo partly drawn), 105% (inactive); that for `N.N.N.N.N.N.N.N.N.N.N.N.N.N.O.O.[Cl-].[Cl-].[Cl-].[Cl-].[Cl-].[Cl-].[Ru+4].[Ru+5].[Ru+5]`, 123% (inactive).
To `Nc1nc2ccc(Cl)cc2c2nc(-c3ccco3)nn12` belongs 95.7% (inactive); to `CC[N+](CC)(CC)CC`, 112% (inactive).
As for `Cc1c(C)c2c(c(C)c1O)CCC(C)(CN1CCN(c3cc(N4CCCC4)nc(N4CCCC4)n3)CC1)O2` (stereo not drawn), the vessel count % control was 99.2% (inactive).
The result for `CCn1nc(C(=O)O)c(=O)c2cc3c(cc21)OCO3` reads 102% (inactive).
The result for `N=C(N)SCCN` reads 110% (inactive); that for `CC(=O)[C@H]1CCC2C3CC=C4C[C@@H](OS(=O)(=O)O)CC[C@]4(C)C3CC[C@@]21C` (stereo partly drawn), 85% (inactive); that for `NC(N)=NCCCCN=C(N)N`, 88% (inactive).
Consider `COc1cc(C[C@@H](C)N)c(OC)cc1I`, for which the vessel count % control was 93.2% (inactive).
In the case of `COc1ccc(NC(=O)c2ccc(-c3ccc(-c4noc(C)n4)cc3C)cc2)cc1N1CCN(C)CC1`, the vessel count % control is 93% (inactive).
To `CN(C)C/C=C(/c1ccc(Br)cc1)c1cccnc1` belongs 104% (inactive); to `CC(=O)[C@H]1CCC2C3CC[C@H]4C[C@H](O)CC[C@]4(C)C3CC[C@@]21C` (stereo partly drawn), 68.7% (inactive).
To `O=c1ccn([C@@H]2O[C@H](COP(=O)(O)OP(=O)(O)O)[C@@H](O)[C@H]2O)c(=O)[nH]1` belongs 140% (inactive); to `CCCN1CCC[C@@H]2Cc3nc(N)ncc3C[C@H]21`, 107% (inactive).
Take `CC(=O)NCCc1c[nH]c2ccc(O)cc12`: the vessel count % control is 101% (inactive).
To `CC#CCOC(=O)c1c(C)nc2sc3c(c2c1N)CCC(O)C3` (stereo not drawn) belongs 116% (inactive).
For `C[C@@]1(C2CCCC2)Cc2cc(OCC(=O)O)c(Cl)c(Cl)c2C1=O`, the vessel count % control was 75.4% (inactive).
To `N=S(=O)(O)Cc1noc2ccccc12` belongs 88.2% (inactive).
Consider `COc1ccc2c(c1)c(CC(=O)O)c(C)n2C(=O)c1ccccc1`, for which the vessel count % control was 116% (inactive).
To `C#CCN(C)CCCOc1ccc(Cl)cc1Cl` belongs 100% (inactive); to `O=C1OC(=O)C2C3CCC(O3)C12` (stereo not drawn), 111% (inactive); to `O=C(O)Cc1c[nH]c2ccc(O)cc12`, 92.5% (inactive).
For the compound `CN1CCc2c(cc(O)c(O)c2Cl)C(c2cccc(Cl)c2)C1` (stereo not drawn), the vessel count % control was 118% (inactive).
The result for `CN1CCC[C@H]1c1cccnc1` reads 120% (inactive); that for `CC(C)C(=O)c1c(C(C)C)nn2ccccc12`, 94.7% (inactive); that for `CN1CCN(CC/C=C2/c3ccccc3Sc3ccc(S(=O)(=O)N(C)C)cc32)CC1`, 98.3% (inactive).
The result for `Cc1cccc(C)c1OCC(C)N` (stereo not drawn) reads 99.4% (inactive).
Take `NCCCCC(=O)O`: the vessel count % control is 84.3% (inactive).
The result for `CCCN1CCO[C@@H]2c3cc(O)ccc3OC[C@H]21` reads 69.9% (inactive) and 97.2% (inactive).
The result for `COc1cc(C(O)CO)ccc1OS(=O)(=O)O` (stereo not drawn) reads 93.6% (inactive).
On to `NC(N)=NOCC[C@H](N)C(=O)O`, for which the vessel count % control was 94.1% (inactive).
The result for `COc1ccc2c(c1)c(CC(=O)O)c(C)n2Cc1ccc(Cl)cc1` reads 109% (inactive); that for `O=C(O)C1CCNCC1`, 99.7% (inactive).
To `Cc1cc(C(C)(C)C)c(O)c(C)c1CC1=NCCN1` belongs 106% (inactive); to `Oc1ccc2c3c1O[C@H]1[C@@H](O)CC[C@@]4(O)C(C2)N(CC2CCC2)CCC314` (stereo partly drawn), 81.2% (inactive).
To `NC(=O)c1ncn([C@@H]2O[C@H](CO)[C@@H](O)[C@H]2O)n1` belongs 63.2% (inactive); to `O=C(CCc1ccc(O)cc1)c1c(O)cc(O)cc1O`, 124% (inactive).
Regarding `O=C1CC[C@@]2(O)C3Cc4ccc(O)c5c4C2(CCN3CC2CC2)[C@H]1O5` (stereo partly drawn), the vessel count % control is 73.7% (inactive).
Take `OC(CN1CCN(c2cccc(Cl)c2)CC1)C(c1ccccc1)c1ccccc1` (stereo not drawn): the vessel count % control is 67.8% (inactive).
The result for `C[N+](C)(C)CCOC(=O)CBr` reads 95.6% (inactive); that for `CC(C)(C(=O)O)c1ccc(C(O)CCCN2CCC(C(O)(c3ccccc3)c3ccccc3)CC2)cc1` (stereo not drawn), 116% (inactive); that for `CC(=O)O[C@]1(C(C)=O)CC[C@H]2[C@@H]3C=C(Cl)C4=CC(=O)[C@@H]5C[C@@H]5[C@]4(C)[C@H]3CC[C@@]21C`, 71.2% (inactive).
To `O=C(O)c1cc([N+](=O)[O-])ccc1NCCCc1ccccc1` belongs 92.5% (inactive); to `NC(Cn1oc(=O)[nH]c1=O)C(=O)O` (stereo not drawn), 129% (inactive); to `CCCCN1CCC(n2c(=O)[nH]c3ccccc32)CC1`, 67.2% (inactive).
To `CC(C)NC[C@H](O)COc1ccc(CC(N)=O)cc1` belongs 86.6% (inactive).
As for `CC1(C(=O)O)C2CCC(O2)C1(C)C(=O)O` (stereo not drawn), the vessel count % control was 0% (inactive).
The result for `CC1CCN(CC[C@H]2CCCN2S(=O)(=O)c2cccc(O)c2)CC1` reads 95.5% (inactive); that for `O=C(O)C1=CC(=C(c2ccc(O)c(C(=O)O)c2)c2ccc(O)c(C(=O)O)c2)C=CC1=O`, 109% (inactive).
To `N[C@@H](Cn1ccc(=O)[nH]c1=O)C(=O)O` belongs 102% (inactive).
To `O=C(O)CCCC[C@@H]1CCSS1` belongs 100% (inactive); to `O=C1NC(c2cccc([N+](=O)[O-])c2)=CCN1c1ccccc1O`, 91.3% (inactive).
`CC(N=C(NC#N)Nc1ccncc1)C(C)(C)C` (stereo not drawn): the vessel count % control was 98.9% (inactive).
The result for `C[N+](C)(C)CC#CCN1CCCC1=O` reads 99.6% (inactive); that for `COc1cc(C(O)CN)ccc1O` (stereo not drawn), 83.3% (inactive); that for `CCCN(CCC)[C@H]1CCc2c(F)ccc(O)c2C1`, 93.1% (inactive).
Regarding `C[N+](C)(C)CC#CCOC(=O)Nc1cccc(Cl)c1`, the vessel count % control was 81.2% (inactive).
The result for `C[C@H](NC(=O)/C(C#N)=C/c1ccc(O)c(O)c1)c1ccccc1` reads 102% (inactive); that for `COc1ccc2c(c[n+](C)c3c4cc5c(cc4ccc23)OCO5)c1OC`, 124% (inactive).
